Read-outs that look alike come from different tables or passages of the source.

In series [1] the test system is souris femelles de type DSA/2. Particulars: mouse, in vivo, ip, 43200 min. An excerpt:
Cette étude, effectuée sur des souris femelles de type DSA/2 d'un poids corporel moyen de 20 g a permis de déterminer la DL0, qui représente la dose unique maximum administrable par une injection intrapéritonéale sans qu'aucune mort intervienne dans les 30 jours qui suivent l'administration du produit.

In series [2] the test system is cellules leucémiques L 1210. Description: Cytotoxicity: growth inhibition of L 1210 cells in culture. The class given is cell-based. The settings on record: concentration giving 50 p. 100 inhibition of cell multiplication, 48 hours of culture, DMSO 1 p. 100 final, read-out: ID50 (the source's name). The text has this:
Les substances à étudier sont dissoutes dans du DMSO (1 p. 100 final) dont on a préalablement vérifié l'innocuité. Des quantités croissantes du produit à tester sont ajoutées au temps ? des numérations sont faites après 24 heures et 48 heures de contact. Des sérias témoins sont constituées avec ces quantités de DMSO équivalentes à celles des séries traitées. […] 5 Le pourcentage d'inhibition de la croissance cellulaire est déterminé par le rapport […] de croissance du témoin sur […] de croissance des essais pour différentes concentrations de produit à tester après 24 heures et 48 heures de culture Une relation dose effet est déterminée selon […] et WILCOXON (C. DUPONT, […].

Series [3] concerns cellules tumorales L 1210. Description: Antitumour effect: increase in life span of mice inoculated with L 1210 cells. The settings on record: 10^5 L 1210 cells i.p.; compound i.p. at dose DL0/2 (half the LD0 dose), 20 hours after inoculation; versus control animals; significant if above 25 p. 100. The class given is in vivo, souris. An excerpt: Les cellules tumorales L 1210 sont inoculées par la voie intrapéritonéale à ces souris femelles OBA/2 d'un poids corporel moyen de 20g en une injection unique de 10^5 cellules; chez les animaux traités, le composé étudié est injecté à la dose de OL0/2 également par la voie intrapéritonéale 20 heures après la première injection des cellules L 1210.
L'effet antitumoral est apprécié par la détermination de l'augmentation de la durée de survie (ILS : increase in life Span) des animaux traités par rapport aux animaux témoins qui n'ont reçu que les cellules tumorales.
L'augmentation de la durée de survie est considérée comme significative lorsqu'elle est supérieure à 25 p. 100.
Les résultats obtenus sont consignés dans le tableau suivant qui indique pour les dérivés testés, le pourcentage d'augmentation de la durée de survie par rapport au témoin.

In the case of `Cc1c2cc[n+](C)cc2c(C)c2c1[nH]c1ccc(O)c(N=CC(=O)O)c12` [dérivé n° 3], the DL0 in series [1] came out at 20 mg/kg. Moreover, in series [2] (Mus musculus, L1210), the IC50 amounted to 540 nM.

`Cc1c2cc[n+](C)cc2c(C)c2c1[nH]c1ccc(O)c(N=C(CCC(=O)O)C(=O)O)c12` [dérivé n° 6, acétate de méthyl-2 hydroxy-9 glutamyle-10 ellipticinium]: the IC50 in series [2] (Mus musculus, L1210) was 23500 nM.

In series [1], `Cc1c2cc[n+](C)cc2c(C)c2c1[nH]c1ccc(O)c(N=C(C(=O)O)C(C)C)c12` [dérivé n° 2, acétate de méthyl-2 hydroxy-9 valine 10 ellipticinium] displayed a DL0 of 15 mg/kg. In addition, the “POURCENTAGE D'AUGMENTATION DE LA DUREE DE SURVIE (ILS)” value in series [3] is given as 31,3 p. 100. In series [2] (Mus musculus, L1210), the IC50 is 310 nM.

Turning to “acétate de méthyl -2 oxo -9 (guanylyl -5' -P)-10 ellipticinium [dérivé n° 13]”, in series [2], the IC50 is greater than 1000 nM.

With `Cc1c2cc[n+](C)cc2c(C)c2c1[nH]c1ccc(O)c(N=C(CC(C)C)C(=O)O)c12` [dérivé n° 1, acétate es méthyl-2 hydroxy-9 leucine-10, elliopticinium], the DL0 in series [1] turned out to be 10 mg/kg. Moreover, the “POURCENTAGE D'AUGMENTATION DE LA DUREE DE SURVIE (ILS)” value in series [3] is listed as 35 p. 100. Further, the IC50 in series [2] (Mus musculus, L1210) is 280 nM.

“Hexafluorophosphate de méthyl-2 hydroxy-8 méthylcystéine-10 ellipticinium [dérivé n° 7]”: the IC50 in series [2] worked out at 790 nM.

For the compound “acétate de méthyl-2 oxo-9 guanosyl-10 ellipticinium [dérivé n° 11]”, the IC50 in series [2] was 760 nM.

With `CC(=O)NC(CSc1c(O)ccc2[nH]c3c(C)c4cc[n+](C)cc4c(C)c3c12)C(=O)O` (stereo not shown) [dérivé n° 8, Hexafluorophosphate de méthyl-2 hydroxy-9 N-acétyl cystéin-10 ellipticinium], the IC50 in series [2] (Mus musculus, L1210) worked out at 1120 nM.

For the compound `Cc1c2cc[n+](C)cc2c(C)c2c1[nH]c1ccc(O)c(N=C(Cc3c[nH]cn3)C(=O)O)c12` [dérivé n° 4], in series [2] (Mus musculus, L1210), the IC50 was 2460 nM.

Turning to `CC(=Nc1c(O)ccc2[nH]c3c(C)c4cc[n+](C)cc4c(C)c3c12)C(=O)O` [dérivé n° 5, scétate ce méthyl-2 hydroxy-9 elanine-10 ellipricinium], the DL0 in series [1] turned out to be 20 mg/kg. Moreover, in series [2] (Mus musculus, L1210), the IC50 stood at 200 nM.

Take `Cc1c2cc[n+](C)cc2c(C)c2c1[nH]c1ccc(O)c(SCC(NC(=O)CCC(N)C(=O)O)C(=O)NCC(=O)O)c12` (stereo not shown) [dérivé n° 9, hexafluorophosphata de méthyl-2 hydroxy-9 glutathion-10 ellipticinium]: in series [2] (Mus musculus, L1210), the IC50 was found to be 1610 nM.

Take “acétate de méthyl-2 oxo -9 (adényl -5'-P)-10 ellioticinium [dérivé n° 12]”: the IC50 in series [2] is greater than 800 nM.

Consider “acétate de méthyl-2 oxo-9 adényl-10 ellipticinium [dérivé n° 10]”, for which the IC50 in series [2] was determined as 500 nM.

The values are drawn from patent EP0097070A2, “Process for preparing ellipticine derivatives, compounds so obtained and medicaments containing them” (ELF SANOFI, priority 1982, dated 1983).
